Measured values: patent publication US7423122B2, “N-terminal and C-terminal markers in nascent proteins” (priority 1999, dated 2008)
Several values for one entry are separate records, joined by “and”; a condition that tells them apart may be missing. Equal entries are not always repeated.

Legend:
[1] = system: E. coli T7 S30 transcription/translation extract; assay type: biochemical
[2] = system: E. coli S30 translation mixtures; assay type: biochemical
[3] = system: rabbit red blood cells (rRBCs); assay type: cell-based
[4] = system: E. coli T7 S30 transcription/translation extract; assay type: biochemical; remark: listed apart in the source
α-HL = α-HL (Staphylococcus aureus, UniProt P09616)
α-hemolysin = α-hemolysin (Staphylococcus aureus, UniProt P09616)
α-hemolysin, sequence (P09616 26-319, looked up, natural form): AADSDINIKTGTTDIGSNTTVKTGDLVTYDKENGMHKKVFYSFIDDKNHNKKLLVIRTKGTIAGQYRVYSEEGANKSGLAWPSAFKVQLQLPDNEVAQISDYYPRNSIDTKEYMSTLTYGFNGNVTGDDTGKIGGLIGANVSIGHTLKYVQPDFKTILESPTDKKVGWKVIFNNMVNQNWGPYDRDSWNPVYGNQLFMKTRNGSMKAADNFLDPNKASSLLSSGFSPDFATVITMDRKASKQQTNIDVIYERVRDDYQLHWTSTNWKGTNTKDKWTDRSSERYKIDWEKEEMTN

α-HL, sequence (P09616 26-319, looked up, natural form): as above

6-(tetramethylrhodamine-5-(and-6)-carboxamido)hexanoic acid, succinimidyl ester [5/6-TAMRA]
fluorescence of α-HL band relative to BODIPY-FL-SSE [1]: 35%

6-(fluorescein-5-(and-6) carboxamido)hexanoic acid, succinimidyl ester [Fluorescein (SFX)]
fluorescence of α-HL band relative to BODIPY-FL-SSE [1]: 4.6%

4,4-difluoro-5,7-dimethyl-4-bora-3a, 4a-diaza-s-indacene propionic acid, sulfosuccinimidyl ester [BODIPY-FL, SSE]
level of fluorescence of HL band compared to non-sulfonated form [1]: approximately 2 times

Cc1c(CC(=O)ON2C(=O)CC(S(=O)(=O)O)C2=O)c(=O)oc2cc(N)ccc12 (stereo not drawn) [AMCA-sulfo-NHS, sulfosuccinimidyl 7-amino-4-methylcoumarin-3-acetate]
detectability / incorporation of fluorescent α-HL bands [2]: easily detectable bands

succinimidyl 7-amino-methyl-amino-coumarin acetate [AMCA-NHS]
detectability / incorporation of fluorescent α-HL bands [2]: very low levels of detectable fluorescent bands

COc1ccc(-c2cnc(-c3cc[n+](Cc4cccc(C(=O)ON5C(=O)CCC5=O)c4)cc3)o2)cc1 [PyMPO, 1-(3-(succinimidyloxycarbonyl)benzyl)-4-(5-(4-methoxyphenyl)oxazol-2-yl) pyridininium bromide]
reduction in fluorescence compared with BODIPY-FL [1]: approximately an order of magnitude reduction in fluorescence

Alexa 350-N-hydroxy-succinimide ester
detectability / incorporation of fluorescent α-HL bands [2]: seems to not incorporate as well as its neutral counterpart

5-(and-6)-carboxyfluorescein, succinimidyl-ester [Fluorescein (FAM)]
fluorescence of α-HL band relative to BODIPY-FL-SSE [1]: 8.4%

α-Hemolysin
α-Hemolysin activity [3]: 0.085 OD415 nm/μl and 0.083 OD415 nm/μl | earliest time of band detection after initiation of incubation [4]: 5 min

4,4-difluoro-5,7-dimethyl-4-bora-3a,4a-diaza-s-indacene [BODIPY-FL]
molar ratio of incorporated BODIPY-FL to protein (α-HL): 0.29+/−0.03% | amount of alpha-hemolysin detectable (α-hemolysin): Approximately 10 ng | amount of protein detectable (α-hemolysin): 0.3 ng | amount of α-hemolysin detectable (α-hemolysin): 0.35-0.5 nanograms | smallest volume of original reaction mixture giving detectable α-HL band (α-hemolysin): 0.007 µL
